Converted amounts (≈) assume the structure as drawn. Like-named read-outs stand apart in the source and are kept apart here.
What was measured:
Enterococci = assay: MIC90 against linezolid-susceptible Enterococci; assay type: cell-based; details: for MIC90: Enterococcus faecalis, 34 strains, linezolid-susceptible
Source text: (§1) Compounds of this invention can have useful activity against a variety of pathogenic microorganisms. The in vitro activity of compounds of this invention can be assessed by standard testing procedures such as the determination of minimum inhibitory concentration (MIC) by agar dilution as described in “Approved Standard. Methods for Dilution Antimicrobial Susceptibility Tests for Bacteria That Grow Aerobically”, 3rd. ed., published 1993 by the National Committee for Clinical Laboratory Standards, Villanova, Pa., USA. Minimum inhibitory concentration (MIC) refers to the lowest concentration of drug (μg/mL) that inhibits visible growth of the organism. Lower MIC values indicate a higher antibacterial activity. Typically, compounds of the present invention have useful potency against Gram-positive or Gram-negative pathogens with MIC values of ≦8 μg/mL. To measure useful antibacterial activity against multiple bacterial isolates or strains, MIC90 (or minimal inhibitory concentration of the drug that inhibits visible growth of 90% of the microbes in each bacterial specie panel) is determined. Lower MIC number indicates an elevated degree of useful antibacterial activity, while higher MIC number indicates a reduced antibacterial activity. An agent with too high MIC against a bacterial pathogen can not be used for the treatment of infections caused by such microbial species.
(§2) The useful activity of compounds of the present invention against an expanded set of clinical isolates of Staphylococcus aureus (including methicillin-resistant strain, MRSA), Enterococci (including Enterococcus faecalis and Enterococus faecium), and […] is illustrated by the MIC90 data in Table 1.

S. pneumoniae = assay: MIC90 against linezolid-susceptible S. pneumoniae; assay type: cell-based, Streptococcus pneumoniae; details: for MIC90: Streptococcus pneumoniae, read-out: S. pneumoniae (34 strains) MIC90
Source text: as §1, §2

reticulocytes = assay: 5-days mouse sub-acute toxicity test (myelosuppression, reticulocyte count); assay type: in vivo; details: for Ratio for reticulocyte count relative to that for compound of Example 1 / fold drop in the reticulocyte cells counts compared to compound of Example 1: 37.5 mg/kg/day twice-daily, day 5
Description: The potential of representative compounds of this invention for myelosuppression has been evaluated in a 5-days mouse sub-acute toxicity test. For comparison purposes, Reference Compound 14 (Example 143 of publication US 2003/0166620) and Reference Compound 15 (TR-700 or torezolid; publications PCT WO2005/058886 and PCT WO2010/042887) have been included. The compounds were dosed to mice at 37.5 mg/kg/day on a twice-daily schedule. On day 5, blood was harvested for hematology testing. The toxicity was evaluated based on the reduction in the number of reticulocytes, previously described as the key marker for myelosuppression signs in pre-clinical testing of oxazolidinones, including linezolid. Thus, a higher degree of a reduction in the reticulocyte count is indicative of an elevated toxicity, while a lower drop in the reticulocyte count indicates a reduced propensity to the myelosuppression effect on the blood cells.

[1] = test system: linezolid-resistant E. faecium; assay: MIC against linezolid-resistant E. faecium strains; assay type: cell-based, Enterococcus faecium; details: one value per group of strains; for MIC: Enterococcus faecium, read-out: E. faecium (no. of strains) MIC
Source text: as §1
(§3) The useful activity of representative compounds of the present invention against several isolates of linezolid-resistant Staphylococcus aureus, Enterococus faecalis and Enterococcu faecium illustrated by the MIC data of Table 2.

S. aureus = assay: MIC90 against linezolid-susceptible clinical isolates of S. aureus; assay type: cell-based, Staphylococcus aureus; details: for MIC90: Staphylococcus aureus, 34 strains, linezolid-susceptible, including MRSA
Source text: as §1, §2

H. influenzae = assay: MIC against isolates of H. influenzae; assay type: cell-based, Haemophilus influenzae; details: for MIC: Haemophilus influenzae
Source text: as §1
The useful activity of representative compounds of the present invention against several isolates of H. influenzae is illustrated by the MIC data of Table 3. H. influenzae is a fastidious Gram-negative pathogen implicated in multiple infections, including pneumonia and bacterial meningitis. No oxazolidinone agent is presently approved for the treatment of H. influenzae infections.

[2] = test system: linezolid-resistant E. faecalis; assay: MIC against linezolid-resistant E. faecalis strains; assay type: cell-based, Enterococus faecalis; details: one value per group of strains; for MIC: Enterococcus faecalis, read-out: E. faecalis (no. of strains) MIC
Source text: as §1, §3

[3] = test system: key Gram-positive pathogens; assay: MIC against key Gram-positive pathogens, further compounds (tests of Table 1); assay type: cell-based; details: in the tests of Table 1
Source text: as §1, §2

[4] = test system: linezolid-resistant S. aureus; assay: MIC against linezolid-resistant S. aureus strains; assay type: cell-based, Staphylococcus aureus; details: one value per group of strains; for MIC: Staphylococcus aureus, read-out: S. aureus (no. of strains) MIC
Source text: as §1, §3

Haemophilus influenzae = details: reported value; cited from earlier work
[5] = test system: linezolid-resistant bacterial strains; details: cited from earlier work
Staphylococcus species = details: cited from earlier work
[6] = versus Reference Compound 15, Table 1 data
[7] = 34 strains, linezolid-susceptible
[8] = mice, 37.5 mg/kg/day on a twice-daily schedule, blood on day 5
[9] = one value per group of strains, read-out: H. influenzae (no. of strains) MIC
[10] = read-out: MIC values against H. influenzae as summarised in text, summary of Table 3

SMILES | MIC90 (Enterococci) | Ratio for reticulocyte count relative to that for compound of Example 1 (reticulocytes; mice) | MIC [1] | MIC90 (S. aureus) | MIC (H. influenzae; [9]) | H. influenzae (no. of strains) MIC (H. influenzae; one value per group of strains) | MIC [2] | MIC values compared to linezolid or Reference Compound 15 [3] | also measured
O=C1O[C@@H](CO)CN1c1ccc(-c2ccc(N3CCOC3=O)nc2)c(F)c1 [Example 1] | 0.25 mg/L (≈ 0.67 µM) | 1 | 0.5 mg/L (≈ 1.34 µM) | 0.125 mg/L (≈ 0.335 µM) | 2 mg/L (≈ 5.36 µM) | 4 (1 strain)^ μg/mL | 0.5 mg/L (≈ 1.34 µM) | – | MIC90 fold lower than Reference Compound 15, Enterococci species (Enterococci; [6]): ~2 fold; MIC90 fold lower than linezolid, Enterococci species (Enterococci; versus linezolid, Table 1 data): ~8 fold; MIC90 (S. pneumoniae; [7]): 0.06 mg/L (≈ 0.161 µM); MIC90 fold lower than Reference Compound 15, S. pneumoniae (S. pneumoniae; [6]): about 4 fold; MIC90 fold lower than linezolid, S. pneumoniae (S. pneumoniae; versus linezolid, Table 1 data): about 16 fold; Reticulocyte count on Day 5, cell count (reticulocytes; [8]): 1.275e+11 L⁻¹; MIC90 fold lower than Reference Compound 15, S. aureus (S. aureus; [6]): about 4 fold; MIC90 fold lower than linezolid, S. aureus (S. aureus; versus linezolid, Table 1 data): about 16 fold; MIC (H. influenzae; [10]): < 4 mg/L; E. faecalis (no. of strains) MIC [2]: 1 (3 strains) μg/mL
O=C1O[C@@H](CO)CN1c1ccc(-c2ccc(N3CCNC3=O)nc2)c(F)c1 [Example 7] | – | – | 0.5 mg/L (≈ 1.34 µM) | – | – | – | – | lower range MIC values | E. faecium (no. of strains) MIC [1]: 1 (4 strains) μg/mL
O=C1O[C@@H](CO)CN1c1ccc(-c2ccc(N3CCCC3=O)nc2)c(F)c1 [Example 10] | – | – | 1 mg/L (≈ 2.69 µM) | – | 4 mg/L (≈ 10.8 µM) | – | 1 mg/L (≈ 2.69 µM) | lower range MIC values | MIC (H. influenzae; [10]): < 4 mg/L; E. faecalis (no. of strains) MIC [2]: 2 (3 strains) μg/mL
O=C1O[C@@H](CO)CN1c1ccc(-c2ccc(N3CCOC3=O)nc2)cc1 [Example 13] | – | – | – | – | 4 mg/L (≈ 11.3 µM) | – | – | lower range MIC values | –
CC(=O)NC[C@H]1CN(c2ccc(N3CCOCC3)c(F)c2)C(=O)O1 [Linezolid, linezolid] | 2 mg/L (≈ 5.93 µM) | – | 16 mg/L (≈ 47.4 µM) | 2 mg/L (≈ 5.93 µM) | 8 mg/L (≈ 23.7 µM) | 16 (2 strains) μg/mL | 16 mg/L (≈ 47.4 µM) | – | MIC90 (S. pneumoniae; [7]): 1 mg/L (≈ 2.96 µM); MIC [4]: 16 mg/L (≈ 47.4 µM); S. aureus (no. of strains) MIC [4]: >16 (3 strains) μg/mL; MIC90 against Haemophilus influenzae (typical) (Haemophilus influenzae): 16 mg/L (≈ 47.4 µM); MICs against linezolid-resistant bacterial strains [5]: ≥ 8 µg/mL; MIC against Staphylococci species (such as S. aureus) (Staphylococcus species; generally displayed): 2 to 4 mg/L; useful MIC90 against Gram-positive Staphylococcus species (Staphylococcus species; species for which the drug is indicated): 2 to 4 mg/L
CC(=O)NC[C@H]1CN(c2ccc(-c3ccc(N4CCOC4=O)nc3)c(F)c2)C(=O)O1 [Ref. Cpd. 14, N-[[(5S)-3-[3-fluoro-4-[6-(2-oxooxazolidin-3-yl)-3-pyridyl]phenyl]-2-oxo-oxazolidin-5-yl]methyl]acetamide] | – | 0.39 | – | – | – | – | – | – | Reticulocyte count on Day 5, cell count (reticulocytes; [8]): 5e+10 L⁻¹; fold drop in the reticulocyte cells counts compared to compound of Example 1 (reticulocytes; mice): ~2.6 fold
Cn1nnc(-c2ccc(-c3ccc(N4C[C@H](CO)OC4=O)cc3F)cn2)n1 [Ref. Cpd. 15, (5R)-3-[3-fluoro-4-[6-(2-methyltetrazol-5-yl)-3-pyridyl]phenyl]-5-(hydroxymethyl)oxazolidin-2-one] | 0.5 mg/L (≈ 1.35 µM) | 0.15 | 4 mg/L (≈ 10.8 µM) | 0.5 mg/L (≈ 1.35 µM) | > 16 mg/L | 8 (4 strains) μg/mL | 4 mg/L (≈ 10.8 µM) | – | MIC90 (S. pneumoniae): 0.25 mg/L (≈ 0.675 µM); fold drop in the reticulocyte cells counts compared to compound of Example 1 (reticulocytes; mice): ~2.6 fold; Reticulocyte count on Day 5, cell count (reticulocytes; mouse, in vivo, 37.5 mg/kg/day, 5 days): 1.91e+10 L⁻¹; MIC [4]: 8 mg/L (≈ 21.6 µM); S. aureus (no. of strains) MIC [4]: 4 (2 strains) μg/mL; E. faecium (no. of strains) MIC [1]: 2 (1 strain)^ μg/mL
